± gives the expanded uncertainty stated by the source.
Assay: activity coefficient (dimensionless); of the first substance listed, at infinite dilution; xn = mol fraction of the nth substance listed
Conditions: Liquid, Chromatography, x1 = 0

Row | SMILES | activity coefficient (323.15 K) | activity coefficient (333.15 K) | activity coefficient (343.15 K)
1 | CCC[N+](=O)[O-] [1-nitropropane] + CCCOC[n+]1ccn(C)c1.N#C[N-]C#N | 1.36 ± 0.09 | 1.37 ± 0.09 | 1.39 ± 0.09
2 | CC#N [acetonitrile] + CCCCCCCCn1cc[n+](COCCC)c1C.N#C[N-]C#N | 0.72 ± 0.05 | 0.7 ± 0.05 | 0.69 ± 0.05
3 | CO [methanol] + CCCOC[n+]1ccn(C)c1.F[B-](F)(F)F | 1.29 ± 0.08 | 1.2 ± 0.08 | 1.11 ± 0.07
4 | CCC(C)=O [butanone] + CN(C)c1cc[n+](COCCCOC[n+]2ccc(N(C)C)cc2)cc1.O=S(=O)([N-]S(=O)(=O)C(F)(F)F)C(F)(F)F.O=S(=O)([N-]S(=O)(=O)C(F)(F)F)C(F)(F)F | 0.44 ± 0.04 | 0.41 ± 0.03 | 0.38 ± 0.03
5 | Cc1ccc(C)cc1 [1,4-dimethylbenzene] + CN(C)c1cc[n+](COCCCOC[n+]2ccc(N(C)C)cc2)cc1.O=S(=O)([N-]S(=O)(=O)C(F)(F)F)C(F)(F)F.O=S(=O)([N-]S(=O)(=O)C(F)(F)F)C(F)(F)F | 1.34 ± 0.09 | 1.36 ± 0.09 | 1.37 ± 0.09
6 | CC(C)CO [2-methyl-1-propanol] + CCCOC[n+]1ccn(C)c1.N#C[N-]C#N | 1.29 ± 0.08 | 1.25 ± 0.08 | 1.21 ± 0.08
7 | CCCCCCCCCC [decane] + CCCCCCCCn1cc[n+](COCCC)c1C.N#C[N-]C#N | 17 ± 1.2 | 15.5 ± 1.1 | 14.9 ± 1
8 | CCO [ethanol] + CCCOC[n+]1ccc(N(C)C)cc1.O=S(=O)([N-]S(=O)(=O)C(F)(F)F)C(F)(F)F | 1.57 ± 0.1 | 1.47 ± 0.1 | 1.4 ± 0.09
9 | c1ccccc1 [benzene] + CCCOC[n+]1ccn(Cc2ccccc2)c1.F[B-](F)(F)F | 2.01 ± 0.14 | 2 ± 0.14 | 1.99 ± 0.14
10 | CCCCCCCCC [nonane] + N#C[N-]C#N.N#C[N-]C#N.c1ccc(Cn2cc[n+](COCCCOC[n+]3ccn(Cc4ccccc4)c3)c2)cc1 | 335 ± 23 | 264 ± 18 | 226 ± 16
11 | CCC(C)CC [3-methylpentane] + CCCCCCCCn1cc[n+](COCCC)c1C.N#C[N-]C#N | 6.65 ± 0.45 | 5.7 ± 0.39 | 6.25 ± 0.43
12 | C1COCCO1 [1,4-dioxane] + CCCOC[n+]1ccn(C)c1.O=S(=O)([N-]S(=O)(=O)C(F)(F)F)C(F)(F)F | 0.57 ± 0.04 | 0.57 ± 0.04 | 0.58 ± 0.04
13 | CCCC(C)=O [pentan-2-one] + CCCCCCCCn1cc[n+](COCCC)c1C.N#C[N-]C#N | 0.95 ± 0.06 | 0.96 ± 0.06 | 0.98 ± 0.06
14 | CCCCCCC [heptane] + CCCCCCCCn1cc[n+](COCCCOC[n+]2ccn(CCCCCCCC)c2C)c1C.O=S(=O)([N-]S(=O)(=O)C(F)(F)F)C(F)(F)F.O=S(=O)([N-]S(=O)(=O)C(F)(F)F)C(F)(F)F | 4.67 ± 0.32 | 4.51 ± 0.31 | 4.49 ± 0.31
15 | CCc1ccccc1 [ethylbenzene] + N#C[N-]C#N.N#C[N-]C#N.c1ccc(Cn2cc[n+](COCCCOC[n+]3ccn(Cc4ccccc4)c3)c2)cc1 | 8.33 ± 0.57 | 8.08 ± 0.55 | 7.78 ± 0.53
16 | CC(C)OC(C)C [diisopropyl ether] + CCCOC[n+]1ccn(C)c1.F[B-](F)(F)F | 32.7 ± 2.2 | 28.5 ± 1.9 | 26.4 ± 1.8
17 | Cc1ccccc1C [1,2-dimethylbenzene] + CCCOC[n+]1ccn(C)c1.O=S(=O)([N-]S(=O)(=O)C(F)(F)F)C(F)(F)F | 2.3 ± 0.16 | 2.28 ± 0.16 | 2.29 ± 0.16
18 | CCCCCC [hexane] + Cn1cc[n+](COCCCOC[n+]2ccn(C)c2)c1.O=S(=O)([N-]S(=O)(=O)C(F)(F)F)C(F)(F)F.O=S(=O)([N-]S(=O)(=O)C(F)(F)F)C(F)(F)F | 18.2 ± 1.2 | 31 ± 2.1 | 
19 | ClCCl [dichloromethane] + CCCOC[n+]1ccn(C)c1.O=S(=O)([N-]S(=O)(=O)C(F)(F)F)C(F)(F)F | 0.71 ± 0.05 | 0.79 ± 0.05 | 0.75 ± 0.05
20 | C#CCCCCC [1-heptyne] + CCCCCCCCn1cc[n+](COCCC)c1C.N#C[N-]C#N | 2.11 ± 0.14 | 2.09 ± 0.14 | 
21 | C#CCCCCC [1-heptyne] + CCCOC[n+]1ccn(C)c1.N#C[N-]C#N | 10.9 ± 0.74 | 10.9 ± 0.74 | 10.7 ± 0.73
22 | ClC(Cl)(Cl)Cl [tetrachloromethane] + Cn1cc[n+](COCCCOC[n+]2ccn(C)c2)c1.O=S(=O)([N-]S(=O)(=O)C(F)(F)F)C(F)(F)F.O=S(=O)([N-]S(=O)(=O)C(F)(F)F)C(F)(F)F | 3.21 ± 0.22 | 3.03 ± 0.21 | 2.29 ± 0.16

Row | SMILES | activity coefficient (323.15 K) | activity coefficient (333.15 K) | activity coefficient (343.15 K)
23 | C#CCCCC [1-hexyne] + CCCOC[n+]1ccn(Cc2ccccc2)c1.N#C[N-]C#N | 4.41 ± 0.3 | 4.29 ± 0.29 | 
24 | CCCCCC [hexane] + CCCOC[n+]1ccn(Cc2ccccc2)c1.O=S(=O)([N-]S(=O)(=O)C(F)(F)F)C(F)(F)F | 7.52 ± 0.51 | 7.21 ± 0.49 | 6.92 ± 0.47
25 | CCCCCC [hexane] + CCCCCCCCn1cc[n+](COCCC)c1C.N#C[N-]C#N | 7.08 ± 0.48 | 6.92 ± 0.47 | 6.8 ± 0.46
26 | CCCC(C)=O [pentan-2-one] + CCCCCCCCn1cc[n+](COCCC)c1C.O=S(=O)([N-]S(=O)(=O)C(F)(F)F)C(F)(F)F | 0.48 ± 0.04 | 0.48 ± 0.04 | 0.48 ± 0.04
27 | ClCCl [dichloromethane] + Cn1cc[n+](COCCCOC[n+]2ccn(C)c2)c1.N#C[N-]C#N.N#C[N-]C#N | 0.73 ± 0.05 | 0.8 ± 0.05 | 0.86 ± 0.06
28 | ClCCl [dichloromethane] + CCCOC[n+]1ccc(N(C)C)cc1.O=S(=O)([N-]S(=O)(=O)C(F)(F)F)C(F)(F)F | 0.57 ± 0.04 | 0.62 ± 0.04 | 0.63 ± 0.04
29 | ClC(Cl)(Cl)Cl [tetrachloromethane] + CCCOC[n+]1ccn(Cc2ccccc2)c1.O=S(=O)([N-]S(=O)(=O)C(F)(F)F)C(F)(F)F | 1.87 ± 0.13 | 1.83 ± 0.12 | 1.81 ± 0.12
30 | C[N+](=O)[O-] [nitromethane] + Cn1cc[n+](COCCCOC[n+]2ccn(C)c2)c1.N#C[N-]C#N.N#C[N-]C#N | 0.56 ± 0.04 | 0.56 ± 0.04 | 0.57 ± 0.04
31 | CC(C)O [propan-2-ol] + CCCOC[n+]1ccn(C)c1.N#C[N-]C#N | 1.1 ± 0.07 | 1.07 ± 0.07 | 1.04 ± 0.07
32 | CCC(C)=O [butanone] + Cn1cc[n+](COCCCOC[n+]2ccn(C)c2)c1.O=S(=O)([N-]S(=O)(=O)C(F)(F)F)C(F)(F)F.O=S(=O)([N-]S(=O)(=O)C(F)(F)F)C(F)(F)F | 0.36 ± 0.03 | 0.34 ± 0.03 | 0.32 ± 0.03
33 | C1COCCO1 [1,4-dioxane] + CCCOC[n+]1ccn(Cc2ccccc2)c1.F[B-](F)(F)F | 0.95 ± 0.06 | 0.95 ± 0.06 | 0.96 ± 0.06
34 | CCCCCCCCC [nonane] + CN(C)c1cc[n+](COCCCOC[n+]2ccc(N(C)C)cc2)cc1.O=S(=O)([N-]S(=O)(=O)C(F)(F)F)C(F)(F)F.O=S(=O)([N-]S(=O)(=O)C(F)(F)F)C(F)(F)F | 60.7 ± 4.2 | 52 ± 3.6 | 47.2 ± 3.2
35 | CC#N [acetonitrile] + CCCOC[n+]1ccn(Cc2ccccc2)c1.N#C[N-]C#N | 0.72 ± 0.05 | 0.76 ± 0.05 | 0.77 ± 0.05
36 | CCC(C)CC [3-methylpentane] + CCCOC[n+]1ccn(Cc2ccccc2)c1.O=S(=O)([N-]S(=O)(=O)C(F)(F)F)C(F)(F)F | 8.01 ± 0.55 | 6.59 ± 0.45 | 5.91 ± 0.4
37 | CC(C)O [propan-2-ol] + Cn1cc[n+](COCCCOC[n+]2ccn(C)c2)c1.N#C[N-]C#N.N#C[N-]C#N | 1.39 ± 0.09 | 1.32 ± 0.09 | 1.26 ± 0.08
38 | CC(C)OC(C)C [diisopropyl ether] + CCCCCCCCn1cc[n+](COCCCOC[n+]2ccn(CCCCCCCC)c2C)c1C.O=S(=O)([N-]S(=O)(=O)C(F)(F)F)C(F)(F)F.O=S(=O)([N-]S(=O)(=O)C(F)(F)F)C(F)(F)F | 1.54 ± 0.1 | 1.56 ± 0.1 | 1.54 ± 0.1
39 | C1COCCO1 [1,4-dioxane] + CN(C)c1cc[n+](COCCCOC[n+]2ccc(N(C)C)cc2)cc1.O=S(=O)([N-]S(=O)(=O)C(F)(F)F)C(F)(F)F.O=S(=O)([N-]S(=O)(=O)C(F)(F)F)C(F)(F)F | 0.44 ± 0.04 | 0.45 ± 0.04 | 0.45 ± 0.04
40 | CCCCCCCCC [nonane] + CCCOC[n+]1ccn(Cc2ccccc2)c1.F[B-](F)(F)F | 179 ± 12 | 164 ± 11 | 126 ± 8.7
41 | CCCCCCCCCCCC [dodecane] + CCCCCCCCn1cc[n+](COCCCOC[n+]2ccn(CCCCCCCC)c2C)c1C.O=S(=O)([N-]S(=O)(=O)C(F)(F)F)C(F)(F)F.O=S(=O)([N-]S(=O)(=O)C(F)(F)F)C(F)(F)F | 15.4 ± 1.1 | 13.9 ± 0.95 | 13.1 ± 0.89
42 | C#CCCCC [1-hexyne] + CCCCCCCCn1cc[n+](COCCCOC[n+]2ccn(CCCCCCCC)c2C)c1C.N#C[N-]C#N.N#C[N-]C#N | 1.72 ± 0.12 | 1.68 ± 0.11 | 1.63 ± 0.11
43 | Cc1cccc(C)c1 [1,3-dimethylbenzene] + CCCCCCCCn1cc[n+](COCCC)c1C.O=S(=O)([N-]S(=O)(=O)C(F)(F)F)C(F)(F)F | 1.02 ± 0.06 | 1 ± 0.06 | 1.01 ± 0.06
44 | CCO [ethanol] + Cn1cc[n+](COCCCOC[n+]2ccn(C)c2)c1.O=S(=O)([N-]S(=O)(=O)C(F)(F)F)C(F)(F)F.O=S(=O)([N-]S(=O)(=O)C(F)(F)F)C(F)(F)F | 1.06 ± 0.07 | 0.96 ± 0.06 | 0.89 ± 0.06

Reference: the NIST ThermoML archive (doi:10.1016/j.fluid.2014.11.020)
